Reference: patent US20150218534A1, “MODIFIED DNA POLYMERASE” (TOYOBO CO., LTD., priority 2012, published 2015)
Residue numbers refer to the chain shown, from its start. In names and notes the source's numbering stands.

B1: KOD Y7A: modified DNA polymerase derived from Thermococcus kodakaraensis KOD1 with Y7A (protein, listed as Thermococcus kodakaraensis)
chain: MILDTDAITEDGKPVIRIFKKENGEFKIEYDRTFEPYFYALLKDDSAIEEVKKITAERHGTVVTVKRVEKVQKKFLGRPVEVWKLYFTHPQDVPAIRDKIREHPAVIDIYEYDIPFAKRYLIDKGLVPMEGDEELKMLAFDIETLYHEGEEFAEGPILMISYADEEGARVITWKNVDLPYVDVVSTEREMIKRFLRVVKEKDPDVLITYNGDNFDFAYLKKRCEKLGINFALGRDGSEPKIQRMGDRFAVEVKGRIHFDLYPVIRRTINLPTYTLEAVYEAVFGQPKEKVYAEEITTAWETGENLERVARYSMEDAKVTYELGKEFLPMEAQLSRLIGQSLWDVSRSSTGNLVEWFLLRKAYERNELAPNKPDEKELARRRQSYEGGYVKEPERGLWENIVYLDFRSLYPSIIITHNVSPDTLNREGCKEYDVAPQVGHRFCKDFPGFIPSLLGDLLEERQKIKKKMKATIDPIERKLLDYRQRAIKILANSYYGYYGYARARWYCKECAESVTAWGREYITMTIKEIEEKYGFKVIYSDTDGFFATIPGADAETVKKKAMEFLKYINAKLPGALELEYEGFYKRGFFVTKKKYAVIDEEGKITTRGLEIVRRDWSEIAKETQARVLEALLKDGDVEKAVRIVKEVTEKLSKYEVPPEKLVIHEQITRDLKDYKATGPHVAVAKRLAARGVKIRPGTVISYIVLKGSGRIGDRAIPFDEFDPTKHKYDAEYYIENQVLPAVERILRAFGYRKEDLRYQKTRQVGLSAWLKPKGT
B2: KOD P36H: modified KOD DNA polymerase with P36H (protein, listed as Thermococcus kodakaraensis)
chain: B1 chain with A7Y, P36H
B3: KOD V93R: modified KOD DNA polymerase with V93R (protein, listed as Thermococcus kodakaraensis)
chain: B1 chain with A7Y, V93R
B4: KOD P36R: modified KOD DNA polymerase with P36R (protein, listed as Thermococcus kodakaraensis)
chain: B1 chain with A7Y, P36R
B5: KOD V93K: modified KOD DNA polymerase with V93K (protein, listed as Thermococcus kodakaraensis)
chain: B1 chain with A7Y, V93K
B6: KOD V93Q: modified KOD DNA polymerase with V93Q (protein, listed as Thermococcus kodakaraensis)
chain: B1 chain with A7Y, V93Q
B7: KOD P36H/V93K: modified KOD DNA polymerase with P36H and V93K (protein, listed as Thermococcus kodakaraensis)
chain: B1 chain with A7Y, P36H, V93K

Assays:
[1] = test system: 1.3 kbp, 2.8 kbp, and 3.6 kbp of human β-globin; assay: Amplification of long-chain DNA in PCR using dUTP; assay type: biochemical; design: key to Results of PCR in the presence of dUTP 1.3 kbp / Results of PCR in the presence of dUTP 2.8 kbp / Results of PCR in the presence of dUTP 3.6 kbp: A: Amplified; B: Amplified (faint band); C: Not amplified; settings: dTTP replaced by dUTP, 35 cycles
Method in brief: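 Enzymes (1 U, premixed with KOD antibody) amplified 1.3, 2.8 and 3.6 kbp β-globin from 10 ng human genomic DNA with 2 mM dNTPs having dUTP in place of dTTP, 1.5 mM MgSO4, 35 cycles (98° C. 10 s, 65° C. 30 s, 68° C. ~1 min/kbp). Taq control: 2.5 U, 94° C. denaturation. Yield judged by ethidium-stained agarose gel.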

[2] = test system: human genomic DNA (about 1.3 kb) with dUTP added; assay: Evaluation of uracil (dUTP) sensitivity by PCR with dUTP added to the reaction; assay type: biochemical; settings: for Evaluation of dUTP resisitance on a 11-point scale: closer to 0 = stronger sensitivity to dUTP, closer to 10 = lower sensitivity, summary of Examples 1 to 3; for dUTP resistance: dUTP added to 0.5, 5, 50, 100, 200 μM, about 1.3 kb, 30 cycles, 1 U enzyme; for PCR products on addition of dUTP: some amount of dUTP added
Method in brief: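 Uracil sensitivity is judged by whether a roughly 1.3 kb band still appears on ethidium bromide-stained agarose gel. Tolerated dUTP was tested at final 0.5 to 200 μM (0.5, 5, 50, 100, 200 μM), using 10 ng human genomic DNA, 1 U enzyme, 0.2 mM dNTPs and 1.5 mM MgSO4 in KOD-Plus-Ver. 2 buffer. Cycling: 94° C for 30 s, then 30 cycles of 98° C/65° C/68° C.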

Molecule	Results of PCR in the presence of dUTP 1.3 kbp [1]	Results of PCR in the presence of dUTP 2.8 kbp [1]	Results of PCR in the presence of dUTP 3.6 kbp [1]	Evaluation of dUTP resisitance on a 11-point scale [2]	dUTP resistance [2]	PCR products on addition of dUTP [2]
KOD D141A/E143A/P36R: KOD D141A/E143A (exo(−)) mutant with P36R	A	A	A	8	>200 µM	–
KOD N210D/V93K: KOD N210D (exo(−)) mutant with V93K	A	B	B	8	>200 µM	–
KOD H147E/P36H/V93K: KOD H147E (exo(+)) mutant with P36H and V93K	A	A	C	8	>200 µM	–
KOD H147E/Y7A/V93K: KOD H147E (exo(+)) mutant with Y7A and V93K	A	A	B	8	>200 µM	–
KOD D141A/E143A/P36H: KOD D141A/E143A (exo(−)) mutant with P36H	A	A	A	8	>200 µM	–
KOD D141A/E143A/Y7A: KOD D141A/E143A (exo(−)) mutant with Y7A	C	C	C	2	5 µM	–
KOD D141A/E143A/Y7A/V93K: KOD D141A/E143A (exo(−)) mutant with Y7A and V93K	A	A	A	10	>200 µM	–
KOD Y7A/P36H: modified KOD DNA polymerase with Y7A and P36H	A	A	B	8	>200 µM	–
KOD N210D/Y7A/P36H: KOD N210D (exo(−)) mutant with Y7A and P36H	A	A	A	10	>200 µM	–
KOD H147E/V93K: KOD H147E (exo(+)) mutant with V93K	B	B	B	6	>200 µM	–
KOD D141A/E143A/Y7A/P36H: KOD D141A/E143A (exo(−)) mutant with Y7A and P36H	A	A	A	10	>200 µM	–
KOD P115Δ: modified KOD DNA polymerase lacking P115	C	C	C	0	0 µM	–
KOD N210D/V93R: KOD N210D (exo(−)) mutant with V93R	A	B	B	8	>200 µM	–
B1	C	C	C	2	0.5 µM	PCR products were confirmed
B2	B	B	C	5	>200 µM	PCR products were confirmed
B3	B	B	B	5	>200 µM	PCR products were confirmed
B4	B	B	B	5	>200 µM	PCR products were confirmed
B5	B	B	B	6	>200 µM	PCR products were confirmed
B6	C	C	C	3	100 µM	PCR products were confirmed
B7	A	A	C	7	>200 µM	–
